# Molecular target: T1, human T-type channel alpha-1H (CaV 3.2) (Homo sapiens, UniProt O95180)
# T1 construct: expressed in transfected cells; host or cells: HEK 293
# Assay: Ca2+ Influx Assay (cell-based fluorescent, FDSS)
# Conditions: HEK 293 cells expressing human CaV 3.2
# Procedure, shortened: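 HEK293 cells stably expressing human CaV3.2, loaded with Fluo-4-AM 1 h at 37 °C. Compound added 4.5 min before potassium ionophore, then high-K+ depolarization with fluorescence monitored on FDSS. IC50 from 7-point dose-response, duplicate wells.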
# T1 sequence (O95180 whole entry): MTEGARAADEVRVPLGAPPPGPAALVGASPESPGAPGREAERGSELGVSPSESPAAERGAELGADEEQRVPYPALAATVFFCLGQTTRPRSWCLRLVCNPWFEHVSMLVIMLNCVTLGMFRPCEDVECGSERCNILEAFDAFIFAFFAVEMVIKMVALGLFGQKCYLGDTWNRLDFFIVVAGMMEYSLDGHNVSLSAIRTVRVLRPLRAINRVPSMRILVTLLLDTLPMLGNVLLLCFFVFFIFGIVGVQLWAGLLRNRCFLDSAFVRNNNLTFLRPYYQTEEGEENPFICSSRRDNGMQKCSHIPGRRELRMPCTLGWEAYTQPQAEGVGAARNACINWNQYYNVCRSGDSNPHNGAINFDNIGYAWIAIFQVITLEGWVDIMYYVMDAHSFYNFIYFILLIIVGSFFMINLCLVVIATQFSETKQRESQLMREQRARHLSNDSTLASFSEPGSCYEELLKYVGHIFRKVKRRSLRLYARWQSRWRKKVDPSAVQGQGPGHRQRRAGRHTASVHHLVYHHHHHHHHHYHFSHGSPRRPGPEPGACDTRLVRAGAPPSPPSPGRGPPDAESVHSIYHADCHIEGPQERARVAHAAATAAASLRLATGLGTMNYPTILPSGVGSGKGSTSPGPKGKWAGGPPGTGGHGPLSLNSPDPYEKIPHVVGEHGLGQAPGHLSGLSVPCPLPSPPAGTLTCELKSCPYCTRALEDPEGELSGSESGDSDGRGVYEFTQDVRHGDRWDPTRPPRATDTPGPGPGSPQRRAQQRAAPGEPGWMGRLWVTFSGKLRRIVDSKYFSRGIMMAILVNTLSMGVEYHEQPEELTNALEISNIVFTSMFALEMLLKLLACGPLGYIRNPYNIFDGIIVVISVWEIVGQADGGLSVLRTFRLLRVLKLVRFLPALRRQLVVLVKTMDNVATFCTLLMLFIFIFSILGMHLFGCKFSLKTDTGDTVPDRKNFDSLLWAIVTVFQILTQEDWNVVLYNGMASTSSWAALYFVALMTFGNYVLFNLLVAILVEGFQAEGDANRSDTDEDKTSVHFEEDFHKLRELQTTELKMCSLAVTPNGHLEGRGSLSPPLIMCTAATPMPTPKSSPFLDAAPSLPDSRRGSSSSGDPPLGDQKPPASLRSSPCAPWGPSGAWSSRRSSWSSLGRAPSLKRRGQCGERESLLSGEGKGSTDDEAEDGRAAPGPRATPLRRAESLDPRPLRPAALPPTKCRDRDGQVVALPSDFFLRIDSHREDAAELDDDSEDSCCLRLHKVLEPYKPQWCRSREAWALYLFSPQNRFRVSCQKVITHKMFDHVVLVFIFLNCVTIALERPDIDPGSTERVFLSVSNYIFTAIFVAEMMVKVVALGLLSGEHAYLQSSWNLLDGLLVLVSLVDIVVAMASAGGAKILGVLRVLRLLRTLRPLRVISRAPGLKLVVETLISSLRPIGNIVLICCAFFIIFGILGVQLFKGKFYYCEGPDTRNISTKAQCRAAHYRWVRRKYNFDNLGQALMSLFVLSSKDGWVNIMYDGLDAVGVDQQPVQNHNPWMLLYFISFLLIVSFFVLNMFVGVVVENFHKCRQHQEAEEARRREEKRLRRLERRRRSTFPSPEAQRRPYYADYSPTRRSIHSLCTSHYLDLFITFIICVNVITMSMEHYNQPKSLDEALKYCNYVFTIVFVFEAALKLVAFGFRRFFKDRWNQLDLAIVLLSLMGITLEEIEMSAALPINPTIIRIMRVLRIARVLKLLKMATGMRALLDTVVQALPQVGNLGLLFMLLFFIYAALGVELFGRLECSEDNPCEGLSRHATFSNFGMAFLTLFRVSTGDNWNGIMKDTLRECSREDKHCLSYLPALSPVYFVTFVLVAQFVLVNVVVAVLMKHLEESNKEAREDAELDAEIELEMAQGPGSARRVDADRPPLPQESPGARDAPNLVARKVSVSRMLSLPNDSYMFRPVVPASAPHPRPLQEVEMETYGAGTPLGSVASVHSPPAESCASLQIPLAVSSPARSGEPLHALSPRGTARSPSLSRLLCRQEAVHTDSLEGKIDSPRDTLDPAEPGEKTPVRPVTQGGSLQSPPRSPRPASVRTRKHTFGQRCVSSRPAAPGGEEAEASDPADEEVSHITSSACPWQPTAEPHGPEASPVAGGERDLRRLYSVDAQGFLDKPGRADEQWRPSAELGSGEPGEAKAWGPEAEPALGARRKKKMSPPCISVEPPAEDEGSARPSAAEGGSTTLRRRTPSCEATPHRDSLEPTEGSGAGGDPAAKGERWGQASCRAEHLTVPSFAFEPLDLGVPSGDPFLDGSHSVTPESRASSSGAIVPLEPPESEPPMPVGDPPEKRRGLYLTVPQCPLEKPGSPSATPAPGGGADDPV
row,SMILES,IC50 [nM]
1,"C[C@@H](NC(=O)C1CC1c1ccc2ccn(CC3(C)COC3)c2c1)c1cnc(OCC(F)(F)F)cn1 (stereo in doubt) [Example 190, trans-2-(1-((3-methyloxetan-3-yl)methyl)-1H-indol-6-yl)-N-((R)-1-(5-(2,2,2-trifluoro-ethoxy)pyrazin-2-yl)ethyl)cyclopropanecarboxamide]",≤ 300
2,"C[C@@H](NC(=O)C1CC1c1cc(F)cc(F)c1)c1cnc(OCC(F)(F)F)cn1 (stereo in doubt) [Example 194, trans-2-(3,5-difluorophenyl)-N-((R)-1-(5-(2,2,2-trifluoroethoxy)pyrazin-2-yl)ethyl)cyclopropanecarboxamide]",≤ 300
3,"COc1ccc(C2CC2C(=O)N[C@H](C)c2ccc(OCC(F)(F)F)cn2)cc1C (stereo in doubt) [Example 202, trans-2-(4-methoxy-3-methylphenyl)-N-((R)-1-(5-(2,2,2-trifluoroethoxy)pyridin-2-yl)ethyl)cyclopropanecarboxamide]",≤ 300
4,"C[C@@H](NC(=O)C1CC1c1ccc2ccccc2n1)c1ccc(OCC(F)(F)F)nc1 (stereo in doubt) [Example 205, trans-2-(quinolin-2-yl)-N-((R)-1-(6-(2,2,2-trifluoroethoxy)pyridin-3-yl)ethyl)cyclopropanecarboxamide]",≤ 300
5,"C[C@@H](NC(=O)C1CC1c1ccc2cccnc2c1)c1ccc(OCC(F)(F)F)nc1 (stereo in doubt) [Example 206, trans-2-(quinolin-7-yl)-N-((R)-1-(6-(2,2,2-trifluoroethoxy)pyridin-3-yl)ethyl)cyclopropanecarboxamide]",≤ 300
6,"C[C@@H](NC(=O)C1CC1c1ccc2ncccc2c1)c1ccc(OCC(F)(F)F)nc1 (stereo in doubt) [Example 207, trans-2-(quinolin-6-yl)-N-((R)-1-(6-(2,2,2-trifluoroethoxy)pyridin-3-yl)ethyl)cyclopropanecarboxamide]",≤ 300
7,"C[C@@H](NC(=O)C1CC1c1ccc2ccn(C)c2c1)c1ccc(OCC(F)(F)F)nc1 (stereo in doubt) [Example 208, trans-2-(1-methyl-1H-indol-6-yl)-N-((R)-1-(6-(2,2,2-trifluoroethoxy)pyridin-3-yl)ethyl)cyclopropanecarboxamide]",≤ 300
8,"C[C@@H](NC(=O)C1CC1c1cnc2ccccc2c1)c1ccc(OCC(F)(F)F)nc1 (stereo in doubt) [Example 211, trans-2-(quinolin-3-yl)-N-((R)-1-(6-(2,2,2-trifluoroethoxy)pyridin-3-yl)ethyl)cyclopropanecarboxamide]",≤ 300
9,"C[C@@H](NC(=O)C1CC1c1cccc2cc[nH]c12)c1ccc(OCC(F)(F)F)nc1 (stereo in doubt) [Example 212, trans-2-(1H-indol-7-yl)-N-((R)-1-(6-(2,2,2-trifluoroethoxy)pyridin-3-yl)ethyl)cyclopropanecarboxamide]",≤ 300
10,"C[C@@H](NC(=O)C1CC1c1ccc2ccn(CC3(C)COC3)c2c1)c1ccc(OCC(F)(F)F)nc1 (stereo in doubt) [Example 213, trans-2-(1-((3-methyloxetan-3-yl)methyl)-1H-indol-6-yl)-N-((R)-1-(6-(2,2,2-trifluoro-ethoxy)pyridin-3-yl)ethyl)cyclopropanecarboxamide]",≤ 300
11,"C[C@@H](NC(=O)[C@H]1C[C@@H]1c1cccc(OCc2ccccc2)c1)c1ccc(OCC(F)(F)F)cn1 (stereo in doubt) [Example 240, (1S*,2S*)-2-(3-(benzyloxy)phenyl)-N-((R)-1-(5-(2,2,2-trifluoroethoxy)pyridin-2-yl)ethyl)cyclopropanecarboxamide]",≤ 300
12,"C[C@@H](NC(=O)C1CC1c1nc2ccccc2n1C)c1ccc(OCC(F)(F)F)cn1 (stereo in doubt) [Example 243, trans-2-(1-methyl-1H-benzo[d]imidazol-2-yl)-N-((R)-1-(5-(2,2,2-trifluoroethoxy)pyridin-2-yl)ethyl)cyclopropanecarboxamide]",≤ 300

# Source: patent US9101616B2, “Aryl substituted carboxamide derivatives as calcium or sodium channel blockers” (RaQualia Pharma Inc., priority 2009, dated 2015)
